Results from paper PMC6202310 (Molecular Cell, 2018).
Values after ≈ are worked out from the molar mass of the structure shown.

How the values were obtained:
[1] = system: methicillin-resistant Staphylococcus aureus (MRSA); experiment: Agar dilution MIC
E. coli RNAP βR143A = E. coli RNAP βR143A (Escherichia coli, UniProt P0A8V2, R143A); format: biochemical; settings: βR143A RNAP against wild-type RNAP
wild-type E. coli RNAP = wild-type E. coli RNAP (Escherichia coli, UniProt P0A8V2); experiment: In vitro transcription on T7A1 promoter template; format: biochemical; settings: transcription started with ATP, in the absence of the CpA primer
E. coli RNAP βH526Y = E. coli RNAP βH526Y (Escherichia coli, UniProt P0A8V2, H526Y); format: biochemical; settings: at 2.5 mg/mL; mutation at βH526
E. coli RNAP βH526R = E. coli RNAP βH526R (Escherichia coli, UniProt P0A8V2, H526R); format: biochemical; settings: at 2.5 mg/mL; mutation at βH526
E. coli RNAP βH526P = E. coli RNAP βH526P (Escherichia coli, UniProt P0A8V2, H526P); format: biochemical; settings: at 2.5 mg/mL; mutation at βH526
M. smegmatis RNAP = M. smegmatis RNAP (Mycolicibacterium smegmatis, UniProt P60281); experiment: In vitro transcription on T7A1 promoter template; format: biochemical; settings: performed as with E. coli RNAP, started with ATP

Work on `CO[C@H]1/C=C/O[C@@]2(C)Oc3c(C)c(O)c4c(O)c(c(/C=N/N5CCN(C)CC5)c(O)c4c3C2=O)NC(=O)/C(C)=C\C=C\[C@H](C)[C@H](O)[C@@H](C)[C@@H](O)[C@@H](C)[C@H](OC(C)=O)[C@@H]1C` [RIF, rifampicin] yielded an MIC ([1]; S. aureus Bel 97597) of 2 µg/mL (≈ 2.43 µM), an MIC ([1]; S. aureus Bel 97598) of over 128 µg/mL and an MIC ([1]; S. aureus Fin 54511) of over 128 µg/mL. The MIC ([1]; S. aureus Fin 54518) was over 128 µg/mL, the “effect of the βR143A mutation on sensitivity” value (E. coli RNAP βR143A) was “little effect” and the “formation of the triphosphorylated trinucleotide, pppApUpC” value (wild-type E. coli RNAP) was “allowed some of its production”. For the same compound, the “inhibition of formation of the first dinucleotide, pppApU” value (wild-type E. coli RNAP) was 3 fold, the “inhibition of RNAP” value (E. coli RNAP βH526Y) was “no inhibition” and the “inhibition of RNAP” value (E. coli RNAP βH526R) was “no inhibition”. The “inhibition of RNAP” value (E. coli RNAP βH526P) was “no inhibition” and the “synthesis of the trinucleotide (pppApUpC)” value (M. smegmatis RNAP) was “partly allowed”.
